Among the data in patent US11254676B2, “Pyrazole derivative compound and use thereof” (HANMI PHARM. CO., LTD., priority 2017, dated 2022) are GI50 and IC50 values, retold here.

In one test the test system is NCI-H1417 cells. The test is described as follows: Cell growth suppression test, CellTiter-Glo Luminescent Cell Viability Assay. It counts as cell-based. The conditions noted are these: Homo sapiens, 240 h; NCI-H1417 cells treated for 10 days. The protocol:
Cell growth suppression effects of the synthesized compounds on NCI-H1417 cells were identified. The cells were treated with the synthesized compounds for 10 days. Then, in order to test the cell growth suppression, CellTiter-Glo Luminescent Cell Viability Assay (available from Promega, USA) was used. This test is to measure emission signals proportional to the number of ATPs based on a fixed amount of ATPs, which represents the presence of metabolically active cells, thereby determining the number of viable cells. The results are expressed as a GI50 value. As for a control, GSK2879552 (available from GlaxoSmithKline USA) was used.
A general note: In ATP-based viability assays light output follows the ATP content of the culture.

The next test addresses LSD1 (Homo sapiens (Human), UniProt O60341). As to the kind of experiment: LSD1 histone demethylase inhibition, LSD1 fluorescence analysis kit (BPS Bioscience). The format is biochemical. The conditions noted are these: H2O2/HRP/Amplex Red fluorescence readout. From the text:
The results are expressed as an IC50 value. As for a control, GSK2879552 (available from GlaxoSmithKline USA) was used.

The structures appear in SMILES notation.

Usually GI50 stands for the concentration giving 50% growth inhibition. A lower GI50 goes with more potent growth inhibition. By IC50 is commonly meant the concentration that gives 50% inhibition. High values mean weaker potency, low ones greater potency. In the test with NCI-H1417 cells, `O=C(O)c1ccc(CN2CCC(CN[C@@H]3C[C@H]3c3ccccc3)CC2)cc1` [Control, GSK2879552, reference compound] returned a GI50 of 591 nM. This compound gave an IC50 against LSD1 of 311 nM.

`CN[C@@H]1CCCN(C(=O)c2cc(-c3ccc(C#N)c(F)c3)n(-c3ccc(C4CC4)cc3F)n2)C1` [Example 6, (R)-4-(1-(4-cyclopropyl-2-fluorophenyl)-3-(3-(methylamino)piperidine-1-carbonyl)-1H-pyrazole-5-yl)-2-fluorobenzonitrile]: in the test with NCI-H1417 cells, the GI50 was found to be 48 nM. Moreover, half-maximal inhibition against LSD1 (IC50) required 21 nM.

Compound `CN[C@@H]1CCCN(C(=O)c2cc(-c3ccc(C#N)c(F)c3)n(-c3ccc(N4CC[C@@H](OC)C4)cc3F)n2)C1` [Example 70, 2-fluoro-4-(1-(2-fluoro-4-((R)-3-methoxypyrrolidine-1-yl)phenyl)-3-((R)-3-(methylamino)piperidine-1-carbonyl)-1H-pyrazole-5-yl)benzonitrile] had a GI50 in the test on NCI-H1417 cells of 18 nM.

Compound `CCO[C@H]1CCN(c2ccc(-n3nc(C(=O)N4CCC[C@@H](NC)C4)cc3-c3ccc(C#N)c(F)c3)c(F)c2)C1` [Example 71, 2-fluoro-4-(1-(2-fluoro-4-((S)-3-ethoxypyrrolidine-1-yl)phenyl)-3-((R)-3-(methylamino)piperidine-1-carbonyl)-1H-pyrazole-5-yl)benzonitrile] gave a GI50 in the test with NCI-H1417 cells of 10 nM.

`N#Cc1ccc(-c2cc(C(=O)N3CCC[C@@H](N)C3)nn2-c2ccc(N3CCC(O)C3)cc2F)cc1F` (stereo partly drawn) [Example 72, 4-(3-((R)-3-aminopiperidine-1-carbonyl)-1-(2-fluoro-4-(3-hydroxypyrrolidine-1-yl)phenyl)-1H-pyrazole-5-yl)-2-fluorobenzonitrile] had a GI50 in the test on NCI-H1417 cells of 38 nM.

As to `CN[C@@H]1CCCN(C(=O)c2cc(-c3ccc(C#N)c(F)c3)n(-c3ccc(N4CC[C@H](Cl)C4)cc3F)n2)C1` [Example 73, 2-fluoro-4-(1-(2-fluoro-4-((S)-3-chloropyrrolidine-1-yl)phenyl)-3-((R)-3-(methylamino)piperidine-1-carbonyl)-1H-pyrazole-5-yl)benzonitrile], the GI50 with NCI-H1417 cells was 39 nM.

For the compound `N#Cc1ccc(-c2cc(C(=O)N3CCC[C@@H](N)C3)nn2-c2c(F)cc(N3CCCC3)cc2F)cc1F` [Example 74, (R)-4-(3-(3-aminopiperidine-1-carbonyl)-1-(2,6-difluoro-4-(pyrrolidine-1-yl)phenyl)-1H-pyrazole-5-yl)-2-fluorobenzonitrile], the GI50 in the test on NCI-H1417 cells came out at 8.8 nM.

For the compound `N#Cc1ccc(-c2cc(C(=O)N3CCC[C@@H](N)C3)nn2-c2ccc(N3CCCC3)cc2Cl)cc1F` [Example 75, (R)-4-(3-(3-aminopiperidine-1-carbonyl)-1-(2-chloro-4-(pyrrolidine-1-yl)phenyl)-1H-pyrazole-5-yl)-2-fluorobenzonitrile], the 50% growth inhibitory concentration (GI50) in the test with NCI-H1417 cells turned out to be 52 nM.

As to `COc1cc(N2CCCC2)ccc1-n1nc(C(=O)N2CCC[C@@H](N)C2)cc1-c1ccc(C#N)c(F)c1` [Example 76, (R)-4-(3-(3-aminopiperidine-1-carbonyl)-1-(2-methoxy-4-(pyrrolidine-1-yl)phenyl)-1H-pyrazole-5-yl)-2-fluorobenzonitrile], in the test on NCI-H1417 cells, growth was halved (GI50) at 43 nM.

`N#Cc1ccc(-c2cc(C(=O)N3CCC[C@@H](N)C3)nn2-c2ccc(N3CCCCC3)cc2F)cc1` [Example 77, (R)-4-(3-(3-aminopiperidine-1-carbonyl)-1-(2-fluoro-4-(piperidine-1-yl)phenyl)-1H-pyrazole-5-yl)benzonitrile] came in with a GI50 with NCI-H1417 cells of 67 nM.

As to `N#Cc1ccc(-c2cc(C(=O)N3CCC[C@@H](N)C3)nn2-c2ccc(N3CCCCC3)cc2F)cc1F` [Example 78, (R)-4-(3-(3-aminopiperidine-1-carbonyl)-1-(2-fluoro-4-(piperidine-1-yl)phenyl)-1H-pyrazole-5-yl)-2-fluorobenzonitrile], in the test on NCI-H1417 cells, the GI50 was determined as 34 nM. Against the preceding compound, the GI50 is about 2-fold lower.

Consider `CC1CC(C)CN(c2ccc(-n3nc(C(=O)N4CCC[C@@H](N)C4)cc3-c3ccc(C#N)c(F)c3)c(F)c2)C1` (stereo partly drawn) [Example 82, 4-(3-((R)-3-aminopiperidine-1-carbonyl)-1-(4-(3,5-dimethylpiperidine-1-yl)-2-fluorophenyl)-1H-pyrazole-5-yl)-2-fluorobenzonitrile], for which growth in the test with NCI-H1417 cells was halved (GI50) at 119 nM.

In the test on NCI-H1417 cells, `N#Cc1ccc(-c2cc(C(=O)N3CCC[C@@H](N)C3)nn2-c2ccc(N3CCC(N4CCCCC4)CC3)cc2F)cc1F` [Example 83, (R)-4-(1-(4-([1,4′-bipiperidine]-1′-yl)-2-fluorophenyl)-3-(3-aminopiperidine-1-carbonyl)-1H-pyrazole-5-yl)-2-fluorobenzonitrile] came in with a GI50 of 71 nM. This GI50 lies about 1.7-fold lower than the previous one.

`N#Cc1ccc(-c2cc(C(=O)N3CCCC[C@@H](N)C3)nn2-c2ccc(N3CCCCC3)cc2F)cc1F` [Example 84, (R)-4-(3-(3-aminoazepane-1-carbonyl)-1-(2-fluoro-4-(piperidine-1-yl)phenyl)-1H-pyrazole-5-yl)-2-fluorobenzonitrile] displayed a GI50 with NCI-H1417 cells of 84 nM.

In the test with NCI-H1417 cells, `N#Cc1ccc(-c2cc(C(=O)N3CCC[C@@H](N)C3)nn2-c2ccc3c(c2)CCC3)cc1` [Example 87, (R)-4-(3-(3-aminopiperidine-1-carbonyl)-1-(2,3-dihydro-1H-indane-5-yl)-1H-pyrazole-5-yl)benzonitrile] displayed a 50% growth inhibitory concentration (GI50) of 142 nM.

In the test on NCI-H1417 cells, `N#Cc1ccc(-c2cc(C(=O)N3CCC[C@@H](N)C3)nn2-c2ccc3c(c2)CCC3)cc1F` [Example 88, (R)-4-(3-(3-aminopiperidine-1-carbonyl)-1-(2,3-dihydro-1H-inden-5-yl)-1H-pyrazole-5-yl)-2-fluorobenzonitrile] yielded a GI50 of 173 nM.

On to `CN[C@@H]1CCCN(C(=O)c2cc(-c3ccc(C#N)cc3)n(-c3ccc4c(c3)CCC4)n2)C1` [Example 89, (R)-4-(1-(2,3-dihydro-1H-inden-5-yl)-3-(3-(methylamino)piperidine-1-carbonyl)-1H-pyrazole-5-yl)benzonitrile], for which it took 71 nM to inhibit growth in the test on NCI-H1417 cells by half (GI50).
